The nature of series [1]: Hemolytic activity in rabbit erythrocytes. Format: toxicity, cell-based, Oryctolagus cuniculus, Erythrocyte.
For series [2], the system named is Staphylococcus aureus. Briefly: Antibacterial activity against Staphylococcus aureus ATCC 29213 by microbroth dilution assay. Type of series: functional.
The test system of series [3] is Staphylococcus aureus. Kind of series: Antibacterial activity against methicillin resistant Staphylococcus aureus NCTC 10442 by microbroth dilution assay. Format: functional. In general terms: Dilution methods test growth across graded concentrations, often in twofold steps.
In series [4] the test system is Staphylococcus aureus. Kind of series: Antibacterial activity against methicillin resistant Staphylococcus aureus N315 by microbroth dilution assay. Format: functional.
The next series concerns Escherichia coli. Briefly: Antibacterial activity against Escherichia coli ATCC 25922 by microbroth dilution assay. Type of series: functional.
A further series relates to Pseudomonas aeruginosa. Kind of series: Antibacterial activity against Pseudomonas aeruginosa ATCC 9027 by microbroth dilution assay. Type of series: functional.
In series [5] the test system is Klebsiella pneumoniae. Briefly: Antibacterial activity against Klebsiella pneumoniae ATCC 14581 by microbroth dilution assay. Format: functional.
Series [6] deals with Klebsiella pneumoniae. Briefly: Antibacterial activity against Klebsiella pneumoniae ATCC 10031 by microbroth dilution assay. Type of series: functional.

Converted amounts (≈) assume the structure as drawn.

On to `CC(C)=CCOc1ccc2c(c1)N(CCCCNC(=N)N)c1ccccc1S2`, for which the concentration for 50% haemolysis (HC50) – broadly, the concentration that lyses half of the red blood cells – in series [1] was over 200 µg/mL. For the same molecule, the MIC (commonly the lowest concentration found to suppress growth) was 1.56 µg/mL (≈ 3.93 µM) in the series with Staphylococcus aureus [2], 0.78 µg/mL (≈ 1.97 µM) against Staphylococcus aureus [3], 0.78 µg/mL (≈ 1.97 µM) in the series with Staphylococcus aureus [4] and over 50 µg/mL with Escherichia coli.

In the case of `CCCCCOc1ccc2c(c1)N(CCCCNC(=N)N)c1ccccc1S2`, the minimum inhibitory concentration (MIC) with Pseudomonas aeruginosa was over 50 µg/mL; with Staphylococcus aureus [2], 1.56 µg/mL (≈ 3.91 µM); in the series with Klebsiella pneumoniae [5], 25 µg/mL (≈ 62.7 µM); against Klebsiella pneumoniae [6], 6.25 µg/mL (≈ 15.7 µM); against Staphylococcus aureus [3], 1.56 µg/mL (≈ 3.91 µM); against Staphylococcus aureus [4] it was 1.56 µg/mL (≈ 3.91 µM). In the series with Escherichia coli, the MIC is 6.25 µg/mL (≈ 15.7 µM). Further, the HC50 in series [1] was over 200 µg/mL.

Regarding `CCCCCOc1ccc2c(c1)N(CCCCN(CC)CC)c1ccccc1S2`, the 50% haemolytic concentration (HC50) in series [1] was over 200 µg/mL. In addition, the MIC against Staphylococcus aureus [2] was 6.25 µg/mL (≈ 15.1 µM); against Staphylococcus aureus [3] it was 3.12 µg/mL (≈ 7.57 µM); against Staphylococcus aureus [4], 3.12 µg/mL (≈ 7.57 µM); in the series with Escherichia coli, over 50 µg/mL.

For `CCCCCCCOc1ccc2c(c1)Nc1ccccc1S2`, the HC50 in series [1] is over 200 µg/mL. Besides, the minimum inhibitory concentration (MIC) in the series on Staphylococcus aureus [2], against Staphylococcus aureus [3], with Staphylococcus aureus [4] and in the series with Escherichia coli was over 50 µg/mL each time.

On to `CCCCCOc1ccc2c(c1)Nc1ccccc1S2`, for which, in series [1], the HC50 was over 200 µg/mL. Besides, the MIC in the series on Staphylococcus aureus [2], in the series with Staphylococcus aureus [3], against Staphylococcus aureus [4] and against Escherichia coli was over 50 µg/mL each time.

For `CC1(C)S[C@@H]2[C@H](NC(=O)[C@H](N)c3ccc(O)cc3)C(=O)N2[C@H]1C(=O)O` [AMOXICILLIN], in the series with Escherichia coli, the MIC amounted to 6.25 µg/mL (≈ 17.1 µM).

In the case of `CCCCCCCOc1ccc2c(c1)N(CCCCNC(=N)N)c1ccccc1S2`, in series [1], the HC50 is over 200 µg/mL. Also, the minimal inhibitory concentration (MIC) with Staphylococcus aureus [2] was 3.12 µg/mL (≈ 7.32 µM); against Staphylococcus aureus [3], 0.78 µg/mL (≈ 1.83 µM); against Staphylococcus aureus [4], 0.78 µg/mL (≈ 1.83 µM); in the series on Escherichia coli, over 50 µg/mL.

In series [1], `CCCCCOc1ccc2c(c1)N(CCCN)c1ccccc1S2` came in with a concentration for 50% haemolysis (HC50) of over 200 µg/mL. Also, the minimal inhibitory concentration (MIC) in the series on Staphylococcus aureus [2] is 3.12 µg/mL (≈ 9.12 µM); in the series on Staphylococcus aureus [3] it was 3.12 µg/mL (≈ 9.12 µM); against Staphylococcus aureus [4], 3.12 µg/mL (≈ 9.12 µM); in the series on Escherichia coli, 25 µg/mL (≈ 73 µM).

As for `CCCCCCCCCOc1ccc2c(c1)Nc1ccccc1S2`, the concentration for 50% haemolysis (HC50) in series [1] is over 200 µg/mL. Further, the MIC against Staphylococcus aureus [2], with Staphylococcus aureus [3], in the series on Staphylococcus aureus [4] and in the series with Escherichia coli was over 50 µg/mL in each case.

For the molecule `CC(C)=CCOc1ccc2c(c1)N(CCCCN)c1ccccc1S2`, the 50% haemolytic concentration (HC50) in series [1] is over 200 µg/mL. Also, the minimal inhibitory concentration (MIC) in the series with Staphylococcus aureus [2] was 6.25 µg/mL (≈ 17.6 µM); against Staphylococcus aureus [3] it was 6.25 µg/mL (≈ 17.6 µM); in the series on Staphylococcus aureus [4], 6.25 µg/mL (≈ 17.6 µM); in the series on Escherichia coli, over 50 µg/mL.

For `CCCCCN1c2ccccc2Sc2ccc(OCC(=O)OCC)cc21`, the 50% haemolytic concentration (HC50) in series [1] was over 200 µg/mL. The MIC against Staphylococcus aureus [2], with Staphylococcus aureus [3], against Staphylococcus aureus [4] and with Escherichia coli was over 50 µg/mL throughout.

`CCOC(=O)COc1ccc2c(c1)Nc1ccccc1S2`: the concentration for 50% haemolysis (HC50) in series [1] is over 200 µg/mL. Also, the MIC in the series with Staphylococcus aureus [2], with Staphylococcus aureus [3], against Staphylococcus aureus [4] and in the series on Escherichia coli was over 50 µg/mL each time.

In turn, `Oc1ccc2c(c1)Nc1ccccc1S2` returned a concentration for 50% haemolysis (HC50) in series [1] of over 200 µg/mL. Further, the minimal inhibitory concentration (MIC) in the series with Staphylococcus aureus [2], in the series on Staphylococcus aureus [3], in the series on Staphylococcus aureus [4] and in the series with Escherichia coli was over 50 µg/mL in each case.

In series [1], `CCCCCOc1ccc2c(c1)N(CCCNC(=N)N)c1ccccc1S2` came in with an HC50 of over 200 µg/mL. Besides, the minimum inhibitory concentration (MIC) is 1.56 µg/mL (≈ 4.06 µM) against Staphylococcus aureus [2], 0.78 µg/mL (≈ 2.03 µM) in the series on Staphylococcus aureus [3], 1.56 µg/mL (≈ 4.06 µM) in the series with Staphylococcus aureus [4] and over 50 µg/mL against Escherichia coli.

`CCCCCN1c2ccccc2Sc2ccc(OCC(=O)N[C@@H](CCCNC(=N)N)C(=O)N[C@@H](CCCNC(=N)N)C(=O)OC)cc21`: the concentration for 50% haemolysis (HC50) in series [1] was over 200 µg/mL. In addition, the minimum inhibitory concentration (MIC) is 6.25 µg/mL (≈ 9.33 µM) against Staphylococcus aureus [2], 6.25 µg/mL (≈ 9.33 µM) with Staphylococcus aureus [3], 3.12 µg/mL (≈ 4.67 µM) in the series on Staphylococcus aureus [4] and over 50 µg/mL against Escherichia coli.

For the molecule `CCCCCOc1ccc2c(c1)N(CCCCCCN)c1ccccc1S2`, in series [1], the concentration for 50% haemolysis (HC50) was over 200 µg/mL. Also, the minimal inhibitory concentration (MIC) was 3.12 µg/mL (≈ 8.13 µM) with Staphylococcus aureus [2], 1.56 µg/mL (≈ 4.06 µM) against Staphylococcus aureus [3], 1.56 µg/mL (≈ 4.06 µM) in the series with Staphylococcus aureus [4] and over 50 µg/mL against Escherichia coli.

`CCCCCCCCCOc1ccc2c(c1)N(CCCCNC(=N)N)c1ccccc1S2` displayed an HC50 in series [1] of over 200 µg/mL. The minimum inhibitory concentration (MIC) against Staphylococcus aureus [2] was 3.12 µg/mL (≈ 6.87 µM); with Staphylococcus aureus [3], 1.56 µg/mL (≈ 3.43 µM); in the series with Staphylococcus aureus [4], 1.56 µg/mL (≈ 3.43 µM); in the series on Escherichia coli, over 50 µg/mL.

`CC(C)=CCOc1ccc2c(c1)Nc1ccccc1S2` yielded an HC50 in series [1] of over 200 µg/mL. In addition, the MIC in the series with Staphylococcus aureus [2], against Staphylococcus aureus [3], in the series on Staphylococcus aureus [4] and against Escherichia coli was over 50 µg/mL in each case.

The values are drawn from ChEMBL document CHEMBL5634090, “Design of phenothiazine-based cationic amphiphilic derivatives incorporating arginine residues: Potential membrane-active broad-spectrum antimicrobials combating pathogenic bacteria in vitro and in vivo” (Eur J Med Chem, 2023).
